Test results from ChEMBL document CHEMBL5030563, “Structure-Based Design of Dual-Acting Compounds Targeting Adenosine A2A Receptor and Histone Deacetylase as Novel Tumor Immunotherapeutic Agents” (J Med Chem, 2021).

Assays:
[1] = Cmax in ICR mouse at 5 mg/kg, iv up to 24 hrs by LC-MS/MS analysis; type: ADME, organism-based; design: route intravenous, dose 5 mg/kg, time <=24; settings: in vivo
[2] = test system: MC-38; assay: Antitumour activity against mouse MC38 cells in C57BL/6 mouse assessed as tumour growth inhibition at 50 mg/kg, ip, bid measured after 9 days relative to control; type: functional; settings: MC-38, ip, 216 h, time 9 day, read-out: TGI
[3] = target: T1, Adenosine receptor A3 (Homo sapiens, UniProt P0DMS8); assay: Displacement of [3H]DPCPX from human adenosine A3 receptor membrane (unknown origin) measured after 60 mins by scintillation counting analysis; type: cell membranes
T1 sequence (P0DMS8 whole entry): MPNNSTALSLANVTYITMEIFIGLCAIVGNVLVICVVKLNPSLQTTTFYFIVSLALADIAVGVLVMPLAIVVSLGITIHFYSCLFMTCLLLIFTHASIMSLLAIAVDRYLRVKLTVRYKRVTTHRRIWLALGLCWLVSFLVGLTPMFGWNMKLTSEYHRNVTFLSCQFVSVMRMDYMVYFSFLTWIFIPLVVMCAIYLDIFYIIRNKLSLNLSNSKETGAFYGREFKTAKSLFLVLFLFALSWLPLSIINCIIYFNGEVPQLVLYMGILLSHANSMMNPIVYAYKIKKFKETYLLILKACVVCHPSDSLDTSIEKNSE

[4] = Half life in ICR mouse at 5 mg/kg, iv up to 24 hrs by LC-MS/MS analysis; type: ADME, organism-based; settings: in vivo
[5] = test system: MC38; assay: Inhibition of HDAC in mouse MC38 cells assessed as increase in acetyl-histone H3 measured after 24 hrs by Western blot analysis; type: cell-based
[6] = target: Histone deacetylase 5 (Homo sapiens, UniProt Q9UQL6); assay: Inhibition of HDAC5 (unknown origin) assessed as release of 7-amino-4-methylcoumarin incubated in room temperature for 15 min measured by Spectra max microtitre plate reader
Sequence of Histone deacetylase 5 (Q9UQL6 whole entry): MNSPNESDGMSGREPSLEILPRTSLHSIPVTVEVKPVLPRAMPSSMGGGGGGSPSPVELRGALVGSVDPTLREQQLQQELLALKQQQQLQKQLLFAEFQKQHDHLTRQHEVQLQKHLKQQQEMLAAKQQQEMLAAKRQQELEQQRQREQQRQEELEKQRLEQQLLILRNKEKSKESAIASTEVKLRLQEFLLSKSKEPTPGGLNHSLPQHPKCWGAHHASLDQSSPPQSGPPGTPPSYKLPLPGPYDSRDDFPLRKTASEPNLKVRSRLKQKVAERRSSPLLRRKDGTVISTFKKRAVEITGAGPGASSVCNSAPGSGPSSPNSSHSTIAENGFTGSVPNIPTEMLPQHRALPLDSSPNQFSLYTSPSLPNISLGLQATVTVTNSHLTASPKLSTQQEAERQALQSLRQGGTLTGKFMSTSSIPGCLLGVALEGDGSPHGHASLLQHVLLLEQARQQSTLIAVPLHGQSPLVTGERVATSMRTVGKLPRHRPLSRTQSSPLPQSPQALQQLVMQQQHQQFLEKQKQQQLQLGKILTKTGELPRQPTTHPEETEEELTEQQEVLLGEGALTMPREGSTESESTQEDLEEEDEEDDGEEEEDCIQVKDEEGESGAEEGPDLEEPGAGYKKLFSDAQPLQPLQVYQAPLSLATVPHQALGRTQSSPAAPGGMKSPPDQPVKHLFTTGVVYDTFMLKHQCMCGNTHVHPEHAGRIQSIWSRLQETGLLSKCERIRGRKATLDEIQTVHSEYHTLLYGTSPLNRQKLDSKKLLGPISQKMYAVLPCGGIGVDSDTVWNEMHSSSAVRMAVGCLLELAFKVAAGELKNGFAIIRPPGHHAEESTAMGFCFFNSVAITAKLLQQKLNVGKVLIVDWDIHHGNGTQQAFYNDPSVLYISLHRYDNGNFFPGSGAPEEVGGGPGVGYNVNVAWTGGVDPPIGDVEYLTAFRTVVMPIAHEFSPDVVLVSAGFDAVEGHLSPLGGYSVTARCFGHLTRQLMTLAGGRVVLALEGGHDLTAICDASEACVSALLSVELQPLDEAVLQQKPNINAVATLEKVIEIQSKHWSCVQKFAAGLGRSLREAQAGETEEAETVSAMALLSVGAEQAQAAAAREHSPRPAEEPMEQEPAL

[7] = target: T2, Protein deacetylase HDAC6 (Homo sapiens, UniProt Q9UBN7); assay: Inhibition of HDAC6 (unknown origin) assessed as release of 7-amino-4-methylcoumarin incubated in room temperature for 15 min measured by Spectra max microtitre plate reader
T2 sequence (Q9UBN7 whole entry): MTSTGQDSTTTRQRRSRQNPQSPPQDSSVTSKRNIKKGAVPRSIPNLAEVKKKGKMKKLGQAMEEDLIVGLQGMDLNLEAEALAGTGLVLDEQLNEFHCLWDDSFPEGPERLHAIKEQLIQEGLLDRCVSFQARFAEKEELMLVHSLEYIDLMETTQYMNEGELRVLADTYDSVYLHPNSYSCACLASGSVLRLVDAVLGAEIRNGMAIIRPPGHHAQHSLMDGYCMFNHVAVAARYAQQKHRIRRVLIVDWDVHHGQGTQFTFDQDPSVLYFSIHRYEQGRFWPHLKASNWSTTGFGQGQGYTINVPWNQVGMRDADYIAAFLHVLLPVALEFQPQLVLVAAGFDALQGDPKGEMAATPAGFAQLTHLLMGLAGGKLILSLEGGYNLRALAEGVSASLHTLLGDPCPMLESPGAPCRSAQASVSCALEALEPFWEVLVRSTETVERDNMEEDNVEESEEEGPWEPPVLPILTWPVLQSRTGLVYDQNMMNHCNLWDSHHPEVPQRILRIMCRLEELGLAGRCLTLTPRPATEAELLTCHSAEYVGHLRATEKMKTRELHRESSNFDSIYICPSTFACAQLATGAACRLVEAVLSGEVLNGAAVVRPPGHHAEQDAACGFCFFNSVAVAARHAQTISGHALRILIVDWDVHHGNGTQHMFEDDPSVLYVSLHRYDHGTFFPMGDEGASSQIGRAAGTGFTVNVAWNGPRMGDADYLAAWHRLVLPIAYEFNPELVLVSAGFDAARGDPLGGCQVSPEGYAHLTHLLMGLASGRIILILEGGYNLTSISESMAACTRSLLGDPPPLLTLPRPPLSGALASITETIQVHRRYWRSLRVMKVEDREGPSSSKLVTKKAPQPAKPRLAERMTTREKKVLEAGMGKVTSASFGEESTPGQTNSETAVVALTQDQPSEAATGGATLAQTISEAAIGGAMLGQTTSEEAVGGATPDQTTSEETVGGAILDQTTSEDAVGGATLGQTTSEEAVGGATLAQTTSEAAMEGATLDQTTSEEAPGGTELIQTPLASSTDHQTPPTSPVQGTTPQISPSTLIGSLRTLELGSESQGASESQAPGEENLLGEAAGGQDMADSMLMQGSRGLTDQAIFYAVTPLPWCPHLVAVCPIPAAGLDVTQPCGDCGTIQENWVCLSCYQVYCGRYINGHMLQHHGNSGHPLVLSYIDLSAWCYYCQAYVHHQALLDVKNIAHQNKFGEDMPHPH

[8] = target: Adenosine receptor A2a (Homo sapiens, UniProt P29274); assay: Displacement of [3H]SCH58261 from adenosine A2A receptor membrane (unknown origin) measured after 60 mins by scintillation counting analysis; type: cell membranes
Sequence of Adenosine receptor A2a (P29274 whole entry): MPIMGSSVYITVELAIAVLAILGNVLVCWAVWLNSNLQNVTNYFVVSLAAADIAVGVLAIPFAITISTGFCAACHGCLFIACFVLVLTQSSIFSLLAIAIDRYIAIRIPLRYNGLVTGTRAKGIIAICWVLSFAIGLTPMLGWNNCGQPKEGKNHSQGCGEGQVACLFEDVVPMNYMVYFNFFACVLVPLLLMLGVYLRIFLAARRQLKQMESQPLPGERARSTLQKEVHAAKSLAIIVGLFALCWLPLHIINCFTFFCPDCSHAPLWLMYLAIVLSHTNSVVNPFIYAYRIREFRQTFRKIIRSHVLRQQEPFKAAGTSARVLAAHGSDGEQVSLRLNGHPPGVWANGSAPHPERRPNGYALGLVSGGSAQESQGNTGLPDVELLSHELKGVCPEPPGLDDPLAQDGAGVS

[9] = AUC (0 to infinity) in ICR mouse at 20 mg/kg, ip up to 24 hrs by LC-MS/MS analysis; type: ADME, organism-based; design: route intraperitoneal, dose 20 mg/kg, time <=24; settings: in vivo
[10] = MRT in ICR mouse at 20 mg/kg, ip up to 24 hrs by LC-MS/MS analysis; type: ADME, organism-based; settings: in vivo
[11] = target: T3, Adenosine receptor A1 (Homo sapiens, UniProt P30542); assay: Displacement of [3H]DPCPX from human adenosine A1 receptor membrane (unknown origin) measured after 60 mins by scintillation counting analysis; type: cell membranes
T3 sequence (P30542 whole entry): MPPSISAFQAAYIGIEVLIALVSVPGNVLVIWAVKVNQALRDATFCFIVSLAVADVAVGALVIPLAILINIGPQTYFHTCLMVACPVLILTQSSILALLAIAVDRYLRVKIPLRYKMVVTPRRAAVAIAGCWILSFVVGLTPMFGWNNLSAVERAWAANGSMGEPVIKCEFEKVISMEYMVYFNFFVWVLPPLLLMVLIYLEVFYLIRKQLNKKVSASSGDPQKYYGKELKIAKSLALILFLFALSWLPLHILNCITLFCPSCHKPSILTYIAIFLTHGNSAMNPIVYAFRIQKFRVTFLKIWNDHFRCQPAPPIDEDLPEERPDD

[12] = target: Histone deacetylase 2 (Homo sapiens, UniProt Q92769); assay: Inhibition of HDAC2 (unknown origin) assessed as release of 7-amino-4-methylcoumarin incubated in room temperature for 15 min measured by Spectra max microtitre plate reader
Sequence of Histone deacetylase 2 (Q92769 whole entry): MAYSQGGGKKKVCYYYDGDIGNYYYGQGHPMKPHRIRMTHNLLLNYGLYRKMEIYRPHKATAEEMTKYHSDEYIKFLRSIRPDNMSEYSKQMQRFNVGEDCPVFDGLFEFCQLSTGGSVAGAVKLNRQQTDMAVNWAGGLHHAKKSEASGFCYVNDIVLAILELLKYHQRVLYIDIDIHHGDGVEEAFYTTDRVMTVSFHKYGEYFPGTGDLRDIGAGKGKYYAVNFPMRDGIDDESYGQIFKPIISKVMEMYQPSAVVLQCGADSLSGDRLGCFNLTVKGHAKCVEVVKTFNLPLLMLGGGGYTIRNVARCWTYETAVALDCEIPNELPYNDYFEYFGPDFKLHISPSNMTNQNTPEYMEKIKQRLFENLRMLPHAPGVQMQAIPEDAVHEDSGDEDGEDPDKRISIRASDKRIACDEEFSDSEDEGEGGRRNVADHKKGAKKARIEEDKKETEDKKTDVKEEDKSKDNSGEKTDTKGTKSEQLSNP

[13] = target: Histone deacetylase 1 (Homo sapiens, UniProt Q13547); assay: Inhibition of HDAC1 (unknown origin) assessed as release of 7-amino-4-methylcoumarin incubated in room temperature for 15 min measured by Spectra max microtitre plate reader
Sequence of Histone deacetylase 1 (Q13547 whole entry): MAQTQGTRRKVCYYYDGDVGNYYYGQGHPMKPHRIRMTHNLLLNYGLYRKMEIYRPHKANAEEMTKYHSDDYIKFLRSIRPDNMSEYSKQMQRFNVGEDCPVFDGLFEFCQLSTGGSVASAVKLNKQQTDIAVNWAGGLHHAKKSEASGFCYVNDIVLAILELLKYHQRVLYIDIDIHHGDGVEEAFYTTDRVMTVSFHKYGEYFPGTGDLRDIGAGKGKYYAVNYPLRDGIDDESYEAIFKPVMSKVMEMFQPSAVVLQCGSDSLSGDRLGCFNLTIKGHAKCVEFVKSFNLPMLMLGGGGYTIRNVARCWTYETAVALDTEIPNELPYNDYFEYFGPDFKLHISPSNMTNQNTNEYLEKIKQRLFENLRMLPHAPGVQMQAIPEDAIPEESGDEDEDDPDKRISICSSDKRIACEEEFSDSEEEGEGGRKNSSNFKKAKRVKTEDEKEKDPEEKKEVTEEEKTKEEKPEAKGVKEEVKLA

[14] = Cmax in ICR mouse at 20 mg/kg, ip up to 24 hrs by LC-MS/MS analysis; type: ADME, organism-based; design: route intraperitoneal, dose 20 mg/kg, time <=24; settings: in vivo
[15] = Elimination rate constant in ICR mouse at 20 mg/kg, po up to 24 hrs by LC-MS/MS analysis; type: ADME, organism-based; settings: in vivo

Cmax [1]: 3320 ng/mL
Ki [3]: > 10000 nM
half-life [4]: 0.285 h
IC50 [6]: > 10000 nM
IC50 [7]: > 10000 nM
Ki [8]: 2.2 nM
AUC(0-inf) [9]: 6630 ng·h/mL
MRT [10]: 2.61 h
Ki [11]: 71.2 nM
IC50 [12]: 179 nM
IC50 [13]: 80.2 nM
Cmax [14]: 2160 ng/mL
k el at 24 h [15]: 9.86e-05 s⁻¹
Compound: Nc1ccccc1NC(=O)c1ccc(CCn2ncc3c2nc(N)n2nc(-c4ccco4)nc32)cc1
inhibition in vivo at 50 mg/kg [2]: 81%
Activity [5]: Dose-Dependent Effect
